# Measured values from US9499550B2 (BRISTOL-MYERS SQUIBB COMPANY, priority 2012, dated 2016).
# Where two headings read alike, the source gives them in different places.
# Assays:
# [1] = test system: HCV genotype 1a (H77 strain) replicon in HUH-7 cells; test: HCV replicon luciferase reporter assay, genotype 1a; type: cell-based; settings: Hepatitis C virus, Huh-7, 72 h, 3 days incubation
# Method in brief: (§1)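 Replicon inhibition for both genotypes was measured as Renilla luciferase signal (EnduRen, 7.5 μM final, 2 h) after 3-day, 37° C exposure of replicon-bearing HUH-7 cells in 4% FCS DMEM, 0.5% DMSO. The 1b construct carries S1179I; the 1a H77 construct carries P1496L and S2204I. Twenty-point, 3-fold dilutions were fitted four-parametrically for EC50, and CC50 was taken from multiplexed Cell Titer-Blue.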
# [2] = test system: HCV genotype 1b (Con1) replicon in HUH-7 cells; test: HCV replicon luciferase reporter assay, genotype 1b; type: cell-based; settings: Hepatitis C virus, Huh-7, 72 h, 3 days incubation
# Method in brief: as §1
# [3] = HCV genotype 1a replicon luciferase, read-out: LE_1a (EC50, range)
# [4] = HCV genotype 1b replicon luciferase, read-out: LE_1b (EC50, range)
# [5] = HCV genotype 1a replicon luciferase assay, range class, read-out: LE_1a (EC50, range)
# [6] = HCV genotype 1b replicon luciferase assay, range class, read-out: LE_1b (EC50, range)
# [7] = GETYPE1A, HCV genotype 1a replicon luciferase, read-out: LE_1a (EC50, range)
# [8] = GETYPE1B, HCV genotype 1b replicon luciferase, read-out: LE_1b (EC50, range)
smiles,measurement,setting,value
"COc1cnc(O[C@@H]2C[C@H]3C(=O)N[C@]4(C(=O)NS(=O)(=O)C5CCC5)C[C@H]4/C=C\CC[C@H](C)C[C@@H](C)[C@H](NC(=O)OC(C)(C)C(F)(F)F)C(=O)N3C2)c2ccccc12 [Compound 5353, 1,1,1-trifluoro-2-methylpropan-2-yl((2R,6S,7R,9S,13aS,14aR,16aS,Z)-14a-((cyclobutylsulfonyl)carbamoyl)-2-((4-methoxyisoquinolin-1-yl)oxy)-7,9-dimethyl-5,16-dioxo-1,2,3,5,6,7,8,9,10,11,13a,14,14a,15,16,16a-hexadecahydrocyclopropa[e]pyrrolo[1,2-a][1,4]diazacyclopentadecin-6-yl)carbamate]",EC50,[1]; [3],4.82 to 103 nM
same,EC50,[2]; [4],< 5.46 nM
"COc1cc2cc(F)ccc2c(O[C@@H]2C[C@H]3C(=O)N[C@]4(C(=O)NS(=O)(=O)C5(CF)CC5)C[C@H]4/C=C\CC[C@@H](C)C[C@@H](C)[C@H](NC(=O)OC(C)(C)C(C)(F)F)C(=O)N3C2)n1 [Compound 3218, 3,3-difluoro-2-methylbutan-2-yl((2R,6S,7R,9R,13aS,14aR,16aS,Z)-2-((6-fluoro-3-methoxyisoquinolin-1-yl)oxy)-14a-(((1-(fluoromethyl)cyclopropyl)sulfonyl)carbamoyl)-7,9-dimethyl-5,16-dioxo-1,2,3,5,6,7,8,9,10,11,13a,14,14a,15,16,16a-hexadecahydrocyclopropa[e]pyrrolo[1,2-a][1,4]diazacyclopentadecin-6-yl)carbamate]",EC50,[1]; [3],1.01 to 5 nM
same,EC50,[2]; [4],0.1 to 0.5 nM
"CCn1nc(O[C@@H]2C[C@H]3C(=O)N[C@]4(C(=O)NS(=O)(=O)C5(C)CC5)C[C@H]4/C=C\CC[C@H](C)C[C@@H](C)[C@H](NC(=O)C(=O)N(C)C)C(=O)N3C2)c2ccccc2c1=O [Compound 5062, N1-((2R,6S,7R,9S,13aS,14aR,16aS,Z)-2-((3-ethyl-4-oxo-3,4-dihydrophthalazin-1-yl)oxy)-7,9-dimethyl-14a-(((1-methylcyclopropyl)sulfonyl)carbamoyl)-5,16-dioxo-1,2,3,5,6,7,8,9,10,11,13a,14,14a,15,16,16a-hexadecahydrocyclopropa[e]pyrrolo[1,2-a][1,4]diazacyclopentadecin-6-yl)-N2,N2-dimethyloxalamide]",EC50,"[1]; HCV genotype 1a replicon luciferase, read-out: LE_1a (EC50)",≥ 1000 nM
same,EC50,[1]; [3],> 87.4 nM
same,EC50,"[2]; HCV genotype 1b replicon luciferase, read-out: LE_1b (EC50)",1000 nM
same,EC50,[2]; [4],> 87.4 nM
"C[C@@H]1CC/C=C\[C@@H]2C[C@@]2(C(=O)NS(=O)(=O)C2CC2)NC(=O)[C@@H]2C[C@@H](Oc3nc(OCC(F)F)cc4c(Cl)cccc34)CN2C(=O)[C@@H](NC(=O)OC(C)(C)C(C)(F)F)[C@H](C)C1 [Compound 1112, 3,3-difluoro-2-methylbutan-2-yl((2R,6S,7R,9R,13aS,14aR,16aS,Z)-2-((5-chloro-3-(2,2-difluoroethoxyl)isoquinolin-1-yl)oxy)-14a-((cyclopropylsulfonyl)carbamoyl)-7,9-dimethyl-5,16-dioxo-1,2,3,5,6,7,8,9,10,11,13a,14,14a,15,16,16a-hexadecahydrocyclopropa[e]pyrrolo[1,2-a][1,4]diazacyclopentadecin-6-yl)carbamate]",EC50,[1]; [5],< 5.46 nM
same,EC50,[2]; [6],< 5.46 nM
"COc1ccc2c(O[C@@H]3C[C@H]4C(=O)N[C@]5(C(=O)NS(=O)(=O)C6(C)CC6)C[C@H]5/C=C\CC[C@H](C)C[C@@H](C)[C@H](NC(=O)OC(C)(C)C(F)(F)F)C(=O)N4C3)nc(OC)cc2c1 [Compound 1132, 1,1,1-trifluoro-2-methylpropan-2-yl((2R,6S,7R,9S,13aS,14aR,16aS,Z)-2-((3,6-dimethoxyisoquinolin-1-yl)oxy)-7,9-dimethyl-14a-(((1-methylcyclopropyl)sulfonyl)carbamoyl)-5,16-dioxo-1,2,3,5,6,7,8,9,10,11,13a,14,14a,15,16,16a-hexadecahydrocyclopropa[e]pyrrolo[1,2-a][1,4]diazacyclopentadecin-6-yl)carbamate]",EC50,[1]; [5],< 5.46 nM
same,EC50,[2]; [6],< 5.46 nM
"COc1cc(F)cc2c(O[C@@H]3C[C@H]4C(=O)N[C@]5(C(=O)NS(=O)(=O)C6(CF)CC6)C[C@H]5/C=C\CC[C@@H](C)C[C@@H](C)[C@H](NC(=O)OC(C)(C)C)C(=O)N4C3)nccc12 [Compound 3174, tert-butyl ((2R,6S,7R,9R,13aS,14aR,16aS,Z)-2-((7-fluoro-5-methoxyisoquinolin-1-yl)oxy)-14a-(((1-(fluoromethyl)cyclopropyl)sulfonyl)carbamoyl)-7,9-dimethyl-5,16-dioxo-1,2,3,5,6,7,8,9,10,11,13a,14,14a,15,16,16a-hexadecahydrocyclopropa[e]pyrrolo[1,2-a][1,4]diazacyclopentadecin-6-yl)carbamate]",EC50,[1]; [5],< 5.46 nM
same,EC50,[2]; [6],< 5.46 nM
COc1cnc2ccc(O[C@@H]3C[C@H]4C(=O)N[C@]5(C(=O)NS(=O)(=O)C6(C)CC6)C[C@H]5/C=C\CC[C@@H](C)C[C@@H](C)[C@H](NC(=O)OC(C)(C)C(F)(F)F)C(=O)N4C3)cc2n1 [Compound 4339],EC50,[1]; [7],0.1 to 0.5 nM
same,EC50,[2]; [8],0.1 to 0.5 nM
COc1ccc2c(O[C@@H]3C[C@H]4C(=O)N[C@]5(C(=O)NS(=O)(=O)C6(C)CC6)C[C@H]5/C=C\CC[C@@H](C)C[C@@H](C)[C@H](NC(=O)OC(C)(C)C(F)(F)F)C(=O)N4C3)cnnc2c1 [Compound 4322],EC50,[1]; [7],5.01 to 35 nM
same,EC50,[2]; [8],5.01 to 35 nM
"C[C@@H]1CC/C=C\[C@@H]2C[C@@]2(C(=O)NS(=O)(=O)C2(C)CC2)NC(=O)[C@@H]2C[C@@H](Oc3nccc4c5c(ccc34)OCCO5)CN2C(=O)[C@@H](NC(=O)OC(C)(C)C(F)(F)F)[C@H](C)C1 [Compound 5247, 1,1,1-trifluoro-2-methylpropan-2-yl((2R,6S,7R,9R,13aS,14aR,16aS,Z)-2-((2,3-dihydro-[1,4]dioxino[2,3-f]isoquinolin-7-yl)oxy)-7,9-dimethyl-14a-(((1-methylcyclopropyl)sulfonyl)carbamoyl)-5,16-dioxo-1,2,3,5,6,7,8,9,10,11,13a,14,14a,15,16,16a-hexadecahydrocyclopropa[e]pyrrolo[1,2-a][1,4]diazacyclopentadecin-6-yl)carbamate]",EC50,[1]; [3],< 5.46 nM
same,EC50,[2]; [4],< 5.46 nM
"COc1cc2ccnc(O[C@@H]3C[C@H]4C(=O)N[C@]5(C(=O)NS(=O)(=O)C6(CF)CC6)C[C@H]5/C=C\CC[C@@H](C)C[C@@H](C)[C@H](NC(=O)c5ccccc5C(F)(F)F)C(=O)N4C3)c2cc1F [Compound 4096, (2R,6S,7R,9R,13aS,14aR,16aS,Z)-2-(7-fluoro-6-methoxyisoquinolin-1-yloxy)-N-(1-(fluoromethyl)cyclopropylsulfonyl)-7,9-dimethyl-5,16-dioxo-6-(2-(trifluoromethyl)benzamido)-1,2,3,5,6,7,8,9,10,11,13a,14,14a,15,16,16a-hexadecahydrocyclopropa[e]pyrrolo[1,2-a][1,4]diazacyclopentadecine-14a-carboxamide]",EC50,[1]; [3],< 5.46 nM
same,EC50,[2]; [4],< 5.46 nM
CC[C@@H]1C[C@H](C)CC/C=C\[C@@H]2C[C@@]2(C(=O)NS(=O)(=O)C2(C)CC2)NC(=O)[C@@H]2C[C@@H](Oc3nc4cc(OC)ccc4nc3Cl)CN2C(=O)[C@H]1NC(=O)OC(C)(C)C(F)(F)F [Compound 4257],EC50,[1]; [7],5.01 to 35 nM
same,EC50,[2]; [8],0.51 to 1 nM
"CC[C@@H]1C[C@H](C)CC/C=C\[C@@H]2C[C@@]2(C(=O)NS(=O)(=O)C2(CF)CC2)NC(=O)[C@@H]2C[C@@H](Oc3nc4c(c5cc(OC)ccc35)CCCO4)CN2C(=O)[C@H]1NC(=O)OC(C)(C)C(F)(F)F [Compound 6086, 1,1,1-trifluoro-2-methylpropan-2-yl((2R,6S,7R,9R,13aS,14aR,16aS,Z)-7-ethyl-14a-(((1-(fluoromethyl)cyclopropyl)sulfonyl)carbamoyl)-2-((9-methoxy-2,3-dihydro-1H-pyrano[2,3-c]isoquinolin-6-yl)oxy)-9-methyl-5,16-dioxo-1,2,3,5,6,7,8,9,10,11,13a,14,14a,15,16,16a-hexadecahydrocyclopropa[e]pyrrolo[1,2-a][1,4]diazacyclopentadecin-6-yl)carbamate]",EC50,[1]; [3],5.01 to 35 nM
same,EC50,[2]; [4],5.01 to 35 nM
COc1cnc(O[C@@H]2C[C@H]3C(=O)N[C@]4(C(=O)NS(=O)(=O)C5(CF)CC5)C[C@H]4/C=C\CC[C@@H](C)C[C@@H](C)[C@H](NC(=O)OC(C)(C)C(F)(F)F)C(=O)N3C2)c2cccc(Cl)c12 [Compound 4129],EC50,[1]; [7],< 5.46 nM
same,EC50,[2]; [8],< 5.46 nM
"CCn1nc(O[C@@H]2C[C@H]3C(=O)N[C@]4(C(=O)NS(=O)(=O)C5(C)CC5)C[C@H]4/C=C\CC[C@@H](C)C[C@@H](C)[C@H](NC(=O)O[C@@H]4C[C@@H]5C[C@@H]5C4)C(=O)N3C2)c2ccccc2c1=O [Compound 5057, (1R,3r,5S)-bicyclo[3.1.0]hexan-3-yl((2R,6S,7R,9R,13aS,14aR,16aS,Z)-2-((3-ethyl-4-oxo-3,4-dihydrophthalazin-1-yl)oxy)-7,9-dimethyl-14a-(((1-methylcyclopropyl)sulfonyl)carbamoyl)-5,16-dioxo-1,2,3,5,6,7,8,9,10,11,13a,14,14a,15,16,16a-hexadecahydrocyclopropa[e]pyrrolo[1,2-a][1,4]diazacyclopentadecin-6-yl)carbamate]",EC50,[1]; [3],< 5.46 nM
same,EC50,[2]; [4],< 5.46 nM
